# Residue numbers refer to the chain shown, from its start.
# Legend:
# Experiment in all cases: spectrophotometric GST assay at […] nm, nonlinear least-squares fit
# Type in all cases: biochemical
# [1] = molecular target: T1, bmGSTu2 (Bombyx mori, UniProt A9XI30, S67A); details: read-out: S67A; 5 mM GSH; value (SD), n = 3
# T1 construct: full length, 233 residues, 26,667 Da calculated; cDNA from fat body; pET-22b (EcoRI/XhoI, reverse primer without stop codon), E. coli Rosetta (DE3) pLysS
# T1 sequence (A9XI30 1-233 S67A): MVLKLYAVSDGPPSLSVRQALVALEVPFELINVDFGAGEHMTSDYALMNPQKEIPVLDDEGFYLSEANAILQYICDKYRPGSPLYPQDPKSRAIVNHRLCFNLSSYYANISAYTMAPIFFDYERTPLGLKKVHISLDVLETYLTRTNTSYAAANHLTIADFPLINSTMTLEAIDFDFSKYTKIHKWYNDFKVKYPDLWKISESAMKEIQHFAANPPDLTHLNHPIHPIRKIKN
# [2] = molecular target: T2, bmGSTu2 (Bombyx mori, UniProt A9XI30, N68A); details: read-out: N68A; 5 mM GSH; value (SD), n = 3
# T2 construct: full length, 233 residues, 26,667 Da calculated; cDNA from fat body; pET-22b (EcoRI/XhoI, reverse primer without stop codon), E. coli Rosetta (DE3) pLysS
# T2 sequence (A9XI30 1-233 N68A): T1 sequence (A9XI30 1-233 S67A) with A67S, N68A
# [3] = molecular target: T3, bmGSTu2 (Bombyx mori, UniProt A9XI30, E66A); details: read-out: E66A; 5 mM GSH; value (SD), n = 3
# T3 construct: full length, 233 residues, 26,667 Da calculated; cDNA from fat body; pET-22b (EcoRI/XhoI, reverse primer without stop codon), E. coli Rosetta (DE3) pLysS
# T3 sequence (A9XI30 1-233 E66A): T1 sequence (A9XI30 1-233 S67A) with E66A, A67S
# [4] = molecular target: T4, bmGSTu2 (Bombyx mori, UniProt A9XI30); details: read-out: Wild-type; 5 mM GSH; value (SD), n = 3
# T4 construct: full length, 233 residues, 26,667 Da calculated; cDNA from fat body; pET-22b (EcoRI/XhoI, reverse primer without stop codon), E. coli Rosetta (DE3) pLysS
# T4 sequence (A9XI30 1-233): T1 sequence (A9XI30 1-233 S67A) with A67S
# [5] = molecular target: T5, bmGSTu2 (Bombyx mori, UniProt A9XI30, I54A); details: read-out: I54A; 5 mM GSH; value (SD), n = 3
# T5 construct: full length, 233 residues, 26,667 Da calculated; cDNA from fat body; pET-22b (EcoRI/XhoI, reverse primer without stop codon), E. coli Rosetta (DE3) pLysS
# T5 sequence (A9XI30 1-233 I54A): T1 sequence (A9XI30 1-233 S67A) with I54A, A67S
compound,measurement,setting,value
O=[N+]([O-])c1ccc(Cl)c([N+](=O)[O-])c1 [CDNB],Km,[1],1600 µM
same,Km,[2],530 µM
same,Km,[3],910 µM
same,Km,[4],270 µM
same,Km,[5],2500 µM
